Reference: the NIST ThermoML archive (doi:10.1016/j.tca.2008.02.008)

Tests used:
[1] = 298.15 K; 101.33 kPa; Liquid; Vibrating tube method
[2] = refractive index (Na D-line) (dimensionless); conditions: 298.15 K; 101.33 kPa; Liquid; refractometer
[3] = excess molar enthalpy (molar enthalpy of mixing); xn = mol fraction of the nth substance listed; conditions: 298.15 K, 101 kPa, Liquid, Flow calorimetry

COCCOC(C)=O [2-methoxyethyl ethanoate]
Conditions | mass density [kg/m3] | refractive index
[1] | 999.76 | –
[2] | – | 1.39988

CCCCOCCOC(C)=O [2-butoxyethyl acetate]
Conditions | mass density [kg/m3] | refractive index
[1] | 935.12 | –
[2] | – | 1.41183

COCCOC(C)=O [2-methoxyethyl ethanoate] + CC(Cl)CCl
[3]
Conditions | excess molar enthalpy [kcal/mol]
x2 = 0.0464 | -0.0141
x2 = 0.0936 | -0.0253
x2 = 0.1401 | -0.0365
x2 = 0.2084 | -0.0512
x2 = 0.253 | -0.06
x2 = 0.2969 | -0.0674
x2 = 0.3402 | -0.0748
x2 = 0.4038 | -0.08196
x2 = 0.4454 | -0.08535
x2 = 0.5066 | -0.08855
x2 = 0.5467 | -0.08953
x2 = 0.6056 | -0.08855
x2 = 0.6442 | -0.0864
x2 = 0.701 | -0.0811
x2 = 0.7566 | -0.0746
x2 = 0.811 | -0.0636
x2 = 0.8466 | -0.0549
x2 = 0.8991 | -0.0402
x2 = 0.9505 | -0.0217

CCOCCOC(C)=O [2-ethoxyethyl ethanoate]
Conditions | mass density [kg/m3] | refractive index
[1] | 967.36 | –
[2] | – | 1.40311

CCOCCOC(C)=O [2-ethoxyethyl ethanoate] + CC(Cl)CCl
[3]
Conditions | excess molar enthalpy [kcal/mol]
x2 = 0.0532 | -0.0175
x2 = 0.1067 | -0.0303
x2 = 0.1585 | -0.0476
x2 = 0.2088 | -0.0594
x2 = 0.2575 | -0.0693
x2 = 0.3049 | -0.0772
x2 = 0.351 | -0.08413
x2 = 0.3957 | -0.08934
x2 = 0.4605 | -0.09474
x2 = 0.5022 | -0.09634
x2 = 0.5428 | -0.09677
x2 = 0.6017 | -0.09524
x2 = 0.6583 | -0.09261
x2 = 0.6949 | -0.08788
x2 = 0.748 | -0.0794
x2 = 0.7991 | -0.0688
x2 = 0.8485 | -0.0565
x2 = 0.896 | -0.0419
x2 = 0.9569 | -0.0198

CC(Cl)CCl (stereo not given) [1,2-dichloropropane]
Conditions | mass density [kg/m3] | refractive index
[1] | 1148.95 | –
[2] | – | 1.43653

CCCCOCCOC(C)=O [2-butoxyethyl acetate] + CC(Cl)CCl
[3]
Conditions | excess molar enthalpy [kcal/mol]
x2 = 0.0659 | -0.0225
x2 = 0.0985 | -0.0299
x2 = 0.1611 | -0.0499
x2 = 0.1911 | -0.0545
x2 = 0.2486 | -0.0684
x2 = 0.3032 | -0.079
x2 = 0.3549 | -0.08791
x2 = 0.4041 | -0.09455
x2 = 0.4509 | -0.09775
x2 = 0.4955 | -0.1004
x2 = 0.5585 | -0.1023
x2 = 0.5982 | -0.1015
x2 = 0.6545 | -0.09778
x2 = 0.7073 | -0.0914
x2 = 0.7568 | -0.0831
x2 = 0.8035 | -0.0727
x2 = 0.8615 | -0.0569
x2 = 0.9022 | -0.0431
x2 = 0.9531 | -0.0226
